The pIC50 is −log10 of the IC50, conventionally taken in molar units.

This note sets out measurements from patent US20250281491A1, “DUAL FUNCTIONING IMMUNE MODULATING COMPOUNDS, FORMULATIONS, AND USES THEREOF” (THE REGENTS OF THE UNIVERSITY OF MICHIGAN, priority 2022, published 2025).

The subject of assay [1] is mouse bone marrow derived dendritic cells (BMDCs). In words: BMDC activation, upregulation of CD80 and CD86 by flow cytometry. The format is cell-based. As to conditions: 24 hours. Here is the method: FIG. 5 are graphs of BMDC activation as measured based on the upregulation of CD80 and CD86 by flow cytometry for different concentrations of DMA01-166 incubated with mouse bone marrow derived dendritic cells (BMDCs) for 24 hours.
STING activation induces BMDC activation. To test the ability of DMA01-166 in activating BMDC, BMDCs activation was measured based on the upregulation of CD80 and CD86 by flow cytometry. […] Different concentrations of DMA01-166 were incubated with BMDC cells for 24 hours.
(In general: In flow cytometry, cells or beads pass a laser one at a time.)

The test system of assay [2] is M2 polarized RAW264.7 cells. In words: M1 macrophage ratio (CD80 and CD86, flow cytometry) from M2 polarized RAW264.7 cells. The format is cell-based. The note with it: 2 days; for M1 macrophage percentage among all the macrophages: 10 μM, FIG. 9. Here is the method: FIG. 10 is a graph of M1 macrophage ratio as determined by measuring CD80 and CD86 as markers for M1 macrophage by flow cytometry from M2 polarized RAW264.7 cells incubated with different concentrations of DMA01-166 for 2 days.
Macrophage polarization effects of the dual functioning NCEs were further tested by first inducing RAW264.7 cells to M2 macrophage, and then treating with different drugs to test the M1 macrophage percentage among all the macrophages.

The target in another assay is T1, PI3Kγ (Homo sapiens, UniProt P48736).
T1 construct: purchased BPS Bioscience (San Diego, CA, USA)
T1 sequence (P48736 whole entry): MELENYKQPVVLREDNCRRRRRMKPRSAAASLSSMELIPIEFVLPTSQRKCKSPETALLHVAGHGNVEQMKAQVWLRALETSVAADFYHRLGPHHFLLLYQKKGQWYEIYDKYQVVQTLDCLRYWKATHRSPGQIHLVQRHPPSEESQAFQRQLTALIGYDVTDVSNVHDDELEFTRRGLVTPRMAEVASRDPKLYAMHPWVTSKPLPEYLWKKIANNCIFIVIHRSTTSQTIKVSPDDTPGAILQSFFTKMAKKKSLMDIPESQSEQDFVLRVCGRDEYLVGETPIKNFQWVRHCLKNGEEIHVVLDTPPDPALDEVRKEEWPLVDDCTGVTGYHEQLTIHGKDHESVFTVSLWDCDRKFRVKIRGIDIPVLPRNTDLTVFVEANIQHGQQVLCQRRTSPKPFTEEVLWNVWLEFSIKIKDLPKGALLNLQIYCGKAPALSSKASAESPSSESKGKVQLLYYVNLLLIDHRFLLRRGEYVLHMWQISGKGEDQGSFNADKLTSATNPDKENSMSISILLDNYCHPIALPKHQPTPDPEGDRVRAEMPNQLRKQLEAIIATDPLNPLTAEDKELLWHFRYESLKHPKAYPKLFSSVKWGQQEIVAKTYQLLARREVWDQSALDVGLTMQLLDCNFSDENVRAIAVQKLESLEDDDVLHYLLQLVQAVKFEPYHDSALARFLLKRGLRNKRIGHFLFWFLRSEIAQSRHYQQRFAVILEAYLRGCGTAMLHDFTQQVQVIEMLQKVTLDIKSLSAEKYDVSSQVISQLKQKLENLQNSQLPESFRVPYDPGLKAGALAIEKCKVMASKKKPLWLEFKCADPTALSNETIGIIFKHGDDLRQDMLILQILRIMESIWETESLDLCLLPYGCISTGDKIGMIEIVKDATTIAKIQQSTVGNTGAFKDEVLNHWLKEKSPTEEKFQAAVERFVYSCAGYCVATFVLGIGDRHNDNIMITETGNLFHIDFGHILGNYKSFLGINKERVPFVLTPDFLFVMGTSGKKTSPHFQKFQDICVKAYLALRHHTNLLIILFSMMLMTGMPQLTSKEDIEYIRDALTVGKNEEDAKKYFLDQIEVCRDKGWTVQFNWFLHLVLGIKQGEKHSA
In words: PI3K inhibition assay (BPS Bioscience kit, ADP-Glo luminescence). The format is biochemical. As to conditions: for pIC50: purified enzyme. As to the method:
(§1) The IC50 of compounds to inhibit different PI3K isoforms were calculated using Prism 8.
(§2) PI3Kα, PI3K β, PI3Kγ, and PI3Kδ binding assay kits were obtained from BPS Bioscience (San Diego, CA, USA). The assays were conducted according to manufacturer's protocols in 96-well microplates. Briefly, 5 μL PI3K lipid substrate was added to all wells. […] 10 μL of PI3Ka (0.5 ng/μL, PI3K β 4 ng/μL, PI3Kγ 4 ng/μL, or PI3Kδ 13 ng/μL) was added to initiate reaction. The plate was carefully shaken, and the reaction mixture was incubated at 30° C. for 40 minutes. Then 25 μL ADP-Glo reagent (Promega, Madison, WI, USA) was added to each well and the reactions were performed in darkness for 45 minutes. Finally, 50 μL of kinase detection reagent (Promega, Madison, WI, USA) was added to each well and the reactions were performed in darkness for 30 minutes. The luminescence of the reaction mixture was read on a Synergy 2 microplate reader (Biotek).

Another assay deals with T2, PI3Kδ (Homo sapiens, UniProt O00329).
T2 construct: purchased BPS Bioscience (San Diego, CA, USA)
T2 sequence (O00329 whole entry): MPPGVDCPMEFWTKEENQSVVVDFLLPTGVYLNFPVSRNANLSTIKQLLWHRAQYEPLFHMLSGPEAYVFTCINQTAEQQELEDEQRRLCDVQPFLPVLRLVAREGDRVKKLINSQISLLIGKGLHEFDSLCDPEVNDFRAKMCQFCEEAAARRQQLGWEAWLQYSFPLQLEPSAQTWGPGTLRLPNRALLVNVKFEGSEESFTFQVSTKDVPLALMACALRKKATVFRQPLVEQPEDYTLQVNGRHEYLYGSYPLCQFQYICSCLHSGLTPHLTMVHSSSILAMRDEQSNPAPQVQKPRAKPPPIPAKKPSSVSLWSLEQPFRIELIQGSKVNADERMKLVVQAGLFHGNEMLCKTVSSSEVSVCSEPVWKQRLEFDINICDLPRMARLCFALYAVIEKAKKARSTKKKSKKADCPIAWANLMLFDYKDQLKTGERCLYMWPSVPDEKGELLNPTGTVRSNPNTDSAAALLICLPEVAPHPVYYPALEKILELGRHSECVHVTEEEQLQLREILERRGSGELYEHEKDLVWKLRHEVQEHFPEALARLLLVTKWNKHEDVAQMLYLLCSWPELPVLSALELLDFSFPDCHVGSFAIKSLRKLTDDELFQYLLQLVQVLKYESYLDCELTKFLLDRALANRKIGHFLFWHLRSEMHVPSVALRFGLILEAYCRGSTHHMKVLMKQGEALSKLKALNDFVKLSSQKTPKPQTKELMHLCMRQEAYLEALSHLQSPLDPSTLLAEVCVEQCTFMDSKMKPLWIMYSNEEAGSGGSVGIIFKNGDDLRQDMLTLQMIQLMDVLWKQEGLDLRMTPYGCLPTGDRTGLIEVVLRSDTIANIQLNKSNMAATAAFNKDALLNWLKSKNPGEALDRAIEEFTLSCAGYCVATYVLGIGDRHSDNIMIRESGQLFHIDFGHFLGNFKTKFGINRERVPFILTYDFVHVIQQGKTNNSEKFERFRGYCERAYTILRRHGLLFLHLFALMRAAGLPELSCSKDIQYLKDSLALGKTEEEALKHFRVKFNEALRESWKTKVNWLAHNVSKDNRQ
T2 sequence (P27986 whole entry partner): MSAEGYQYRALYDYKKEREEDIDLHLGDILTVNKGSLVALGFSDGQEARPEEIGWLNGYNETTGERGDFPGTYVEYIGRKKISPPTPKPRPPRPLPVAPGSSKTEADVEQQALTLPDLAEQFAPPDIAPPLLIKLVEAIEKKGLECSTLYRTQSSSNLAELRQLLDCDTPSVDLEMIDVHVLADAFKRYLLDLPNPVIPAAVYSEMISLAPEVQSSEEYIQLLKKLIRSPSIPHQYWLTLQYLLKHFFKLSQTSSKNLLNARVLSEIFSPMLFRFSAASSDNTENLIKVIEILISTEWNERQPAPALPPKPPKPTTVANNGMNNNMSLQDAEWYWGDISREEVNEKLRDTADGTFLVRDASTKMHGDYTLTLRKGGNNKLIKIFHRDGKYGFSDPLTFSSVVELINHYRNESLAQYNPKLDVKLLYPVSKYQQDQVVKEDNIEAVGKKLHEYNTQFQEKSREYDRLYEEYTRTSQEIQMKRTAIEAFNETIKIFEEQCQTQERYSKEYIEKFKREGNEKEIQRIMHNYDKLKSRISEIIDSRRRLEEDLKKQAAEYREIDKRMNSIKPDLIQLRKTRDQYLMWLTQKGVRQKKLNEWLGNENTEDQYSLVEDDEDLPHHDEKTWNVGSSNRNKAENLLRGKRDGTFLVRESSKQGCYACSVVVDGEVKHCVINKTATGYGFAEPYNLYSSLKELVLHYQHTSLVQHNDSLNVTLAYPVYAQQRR
The description is as above. Format: biochemical. As to conditions: for pIC50: purified enzyme. As to the method: as §1, §2

For a further assay, the target named is T3, PI3Kα (Homo sapiens, UniProt P42336).
T3 construct: purchased BPS Bioscience (San Diego, CA, USA)
T3 sequence (P42336 whole entry): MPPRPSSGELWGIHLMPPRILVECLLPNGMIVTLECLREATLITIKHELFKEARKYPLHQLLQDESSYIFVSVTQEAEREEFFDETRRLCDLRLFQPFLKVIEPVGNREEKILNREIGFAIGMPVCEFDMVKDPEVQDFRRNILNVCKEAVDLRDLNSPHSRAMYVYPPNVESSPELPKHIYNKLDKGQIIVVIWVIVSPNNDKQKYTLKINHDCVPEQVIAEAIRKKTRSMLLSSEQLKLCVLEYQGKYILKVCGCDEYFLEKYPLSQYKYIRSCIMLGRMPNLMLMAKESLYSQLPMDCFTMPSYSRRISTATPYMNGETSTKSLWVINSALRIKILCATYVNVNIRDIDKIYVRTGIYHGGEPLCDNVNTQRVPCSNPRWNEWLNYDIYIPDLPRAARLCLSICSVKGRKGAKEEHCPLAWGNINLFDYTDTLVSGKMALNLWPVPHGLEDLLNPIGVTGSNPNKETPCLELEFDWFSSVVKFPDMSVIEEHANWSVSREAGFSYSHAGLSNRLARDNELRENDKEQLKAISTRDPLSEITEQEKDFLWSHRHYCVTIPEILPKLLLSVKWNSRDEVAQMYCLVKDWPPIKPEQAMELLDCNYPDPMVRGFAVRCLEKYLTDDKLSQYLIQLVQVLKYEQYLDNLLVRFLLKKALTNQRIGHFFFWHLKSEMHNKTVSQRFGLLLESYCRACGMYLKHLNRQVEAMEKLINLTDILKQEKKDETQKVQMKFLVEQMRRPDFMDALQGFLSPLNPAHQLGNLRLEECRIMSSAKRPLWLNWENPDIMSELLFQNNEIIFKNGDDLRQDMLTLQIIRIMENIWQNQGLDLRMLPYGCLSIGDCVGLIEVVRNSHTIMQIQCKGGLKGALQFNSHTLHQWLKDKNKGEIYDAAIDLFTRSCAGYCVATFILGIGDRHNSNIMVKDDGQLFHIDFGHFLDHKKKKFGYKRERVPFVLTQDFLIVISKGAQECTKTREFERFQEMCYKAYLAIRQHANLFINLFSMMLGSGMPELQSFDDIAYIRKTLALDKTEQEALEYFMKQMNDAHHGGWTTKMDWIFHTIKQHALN
T3 sequence (P27986 whole entry partner): as the sequence (P27986 whole entry partner) above
The assay is described as above. The format is biochemical. The note with it: for pIC50: purified enzyme. As to the method:
as §1, §2

The target in a further assay is T4, PI3K β (Homo sapiens, UniProt P42338).
T4 construct: purchased BPS Bioscience (San Diego, CA, USA)
T4 sequence (P42338 whole entry): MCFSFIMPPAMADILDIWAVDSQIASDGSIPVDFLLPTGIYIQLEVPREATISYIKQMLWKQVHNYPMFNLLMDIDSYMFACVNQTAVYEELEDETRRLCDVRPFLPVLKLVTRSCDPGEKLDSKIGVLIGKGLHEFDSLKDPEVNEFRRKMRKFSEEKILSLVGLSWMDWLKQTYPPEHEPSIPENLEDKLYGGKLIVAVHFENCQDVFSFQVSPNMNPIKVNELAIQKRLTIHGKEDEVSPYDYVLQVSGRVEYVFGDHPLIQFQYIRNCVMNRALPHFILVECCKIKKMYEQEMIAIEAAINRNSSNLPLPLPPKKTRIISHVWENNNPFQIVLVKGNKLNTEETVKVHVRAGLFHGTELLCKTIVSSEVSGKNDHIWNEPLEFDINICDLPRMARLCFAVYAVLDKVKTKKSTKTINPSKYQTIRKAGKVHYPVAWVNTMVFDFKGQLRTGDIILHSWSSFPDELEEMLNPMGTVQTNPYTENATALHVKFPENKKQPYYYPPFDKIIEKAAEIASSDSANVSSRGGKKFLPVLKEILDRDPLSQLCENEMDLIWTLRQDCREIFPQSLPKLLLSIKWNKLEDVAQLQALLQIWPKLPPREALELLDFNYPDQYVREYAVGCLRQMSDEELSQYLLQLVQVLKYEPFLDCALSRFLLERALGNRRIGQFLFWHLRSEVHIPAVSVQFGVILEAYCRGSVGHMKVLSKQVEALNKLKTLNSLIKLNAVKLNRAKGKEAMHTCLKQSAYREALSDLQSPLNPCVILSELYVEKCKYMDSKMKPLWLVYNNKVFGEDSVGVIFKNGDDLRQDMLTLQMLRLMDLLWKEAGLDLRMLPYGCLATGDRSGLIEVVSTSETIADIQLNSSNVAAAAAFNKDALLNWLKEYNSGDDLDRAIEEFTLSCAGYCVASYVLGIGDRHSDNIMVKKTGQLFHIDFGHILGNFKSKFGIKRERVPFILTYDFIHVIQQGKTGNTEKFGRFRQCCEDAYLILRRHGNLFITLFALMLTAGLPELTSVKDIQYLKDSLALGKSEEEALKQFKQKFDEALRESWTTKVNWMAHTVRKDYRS
T4 sequence (P27986 whole entry partner): as the sequence (P27986 whole entry partner) above
The assay is described as above. The format is biochemical. As to conditions: for pIC50: purified enzyme. Here is the method: as §1, §2

The subject of assay [3] is mouse bone marrow derived dendritic cells (BMDCs). In words: mIFNβ secretion from BMDCs by ELISA. The format is cell-based. The note with it: 24 hours; for mIFNβ secretion: BMDC supernatants, 10 μM, FIG. 6. Here is the method: FIG. 7 a graph of mIFNβ concentrations as measured by ELISA from the supernatants of mouse bone marrow derived dendritic cells (BMDCs) incubated with different concentrations of DMA01-166 for 24 hours.
STING activation in BMDC results in mIFNβ secretion. […] Different concentrations of DMA01-166 (FIG. 7) were incubated with BMDC cells for 24 hours.
Background: ELISA stands for enzyme-linked immunosorbent assay.

The subject of a further assay is STING. In words: STING activation in THP-1 ISG Blue cells (QUANTI-Blue, OD 655). The format is cell-based. As to conditions: 24 hours, FIG. 1. As to the method:
FIG. 1 is a graph of STING activation for different concentrations of compounds as determined by incubating with THP-1 ISG Blue cells for 24 hours, mixing with ‘QUANTI-Blue’ solution and measuring OD 655.
FIG. 2 is a graph of STING activation for different concentrations of DMA01-166 as determined by incubating with THP-1 ISG Blue cells for 24 hours, mixing with ‘QUANTI-Blue’ solution and measuring OD 655.
FIG. 3 is a graph of STING activation for different concentrations of MSA-2 as determined by incubating with THP-1 ISG Blue cells for 24 hours, mixing with ‘QUANTI-Blue’ solution and measuring OD 655.
THP-1 ISG Blue cells analysis is a standard assay to test STING activation in vitro. […] Different concentrations of DMA01-166 (FIG. 2) and MSA-2 (FIG. 3) were incubated with THP-1 ISG Blue cells for 24 hours.

For assay [4], the system named is KPC transgenic pancreatic cancer model. In words: In vivo efficacy on KPC transgenic pancreatic cancer model. The note with it: FIG. 13. Here is the method:
FIG. 13 is a graph of the in vivo efficacy on KPC transgenic pancreatic cancer model of an exemplary albumin nanoformulations of: DMA01-166 (D166) and DMA01-166 plus PD-1 antibody (D166+PD-1) with and without paclitaxel (Nano-P).
The in vivo efficacy of DMA01-166 and its albumin nanoformulation was tested on KPC transgenic model.

Assay [5] deals with M2 polarized RAW264.7 cells. In words: TNFα secretion from M2 polarized RAW264.7 cells by ELISA (macrophage polarization). As to conditions: 10 μM, 2 days, vs M2 control group, FIG. 8.

pIC50: −log10 of the molar value.

For `COc1cc2cc(C(=O)CCC(=O)OCCn3cc(-c4cccc5cc([C@@H](C)NC(=O)c6c(N)nn7cccnc67)n(-c6ccccc6)c(=O)c45)nn3)sc2cc1OC` [DMA01-166, (R)-2-(4-(3-(1-(2-aminopyrazolo[1,5-a]pyrimidine-3-carboxamido)ethyl)-1-oxo-2-phenyl-1,2-dihydroisoquinolin-8-yl)-1H-1,2,3-triazol-1-yl)ethyl 4-(5,6-dimethoxybenzo[b]thiophen-2-yl)-4-oxobutanoate], the “BMDC activation at different concentrations” value in assay [1] (FIG. 5) was “dose independent BMDC activation effect”. Also, the “M1 macrophage percentage among all the macrophages” value in [2] is “higher percentage of M1 macrophage compared to IPI-549, cGAMP, ADU and MSA-2”. For the same molecule, the “Macrophage polarization (M1 ratio) at different concentrations” value in assay [2] (FIG. 10) is listed as “dose independent macrophage polarization effect”. In addition, the pIC50 at PI3Kγ is 6.46; on PI3Kδ it was 5.90; at PI3Kα, less than 5.00; on PI3K β it was less than 5.00. For the same molecule, the “Inhibition of PI3Kα (in words)” value on PI3Kα is “no effect”. Besides, on PI3K β, the “Inhibition of PI3K β (in words)” value is listed as “no effect”. Further, the mIFNβ secretion result in assay [3] is recorded as “higher mIFNβ secretion compared to MSA-2”. Also, the “mIFNβ secretion at different concentrations” value in [3] (BMDC, FIG. 7) is “dose independent BMDC activation effect”. Also, the “STING activation (interferon signal)” value with STING is “enhanced interferon signal compared to control and cGAMP group”. In addition, in assay [4], the Median survival amounted to 157.5 days.

`C[C@H](NC(=O)c1c(N)nn2cccnc12)c1cc2cccc(-c3cn(CC(=O)O)nn3)c2c(=O)n1-c1ccccc1` [DMA01-143, (S)-2-(4-(3-(1-(2-aminopyrazolo[1,5-a]pyrimidine-3-carboxamido)ethyl)-1-oxo-2-phenyl-1,2-dihydroisoquinolin-8-yl)-1H-1,2,3-triazol-1-yl) acetic acid]: on PI3Kγ, the “Inhibition of PI3Kγ (in words)” value was “inhibited both PI3Kγ and PI3Kδ”. Also, the negative logarithm of the IC50 (pIC50) on PI3Kγ was 8.27; at PI3Kδ, 8.87; on PI3Kα, 6.39; at PI3K β it was 6.51. In addition, on PI3Kδ, the “Inhibition of PI3Kδ (in words)” value was “inhibited both PI3Kγ and PI3Kδ”.

With `C[C@H](NC(=O)c1c(N)nn2cccnc12)c1cc2cccc(-c3cn(CCO)nn3)c2c(=O)n1-c1ccccc1` [DMA01-148], the “Inhibition of PI3Kγ (in words)” value at PI3Kγ is listed as “selectively inhibited PI3Kγ, with similar efficacy compared to IPI-549”. Moreover, the pIC50 at PI3Kγ was 9.06; at PI3Kδ, 7.81; on PI3Kα, 5.98; at PI3K β, 6.26.

On to `CCOC(=O)Cn1cc(-c2cccc3cc([C@H](C)NC(=O)c4c(N)nn5cccnc45)n(-c4ccccc4)c(=O)c23)nn1` [DMA01-132], for which the “Inhibition of PI3Kγ (in words)” value at PI3Kγ is “inhibited both PI3Kγ and PI3Kδ”. In addition, the pIC50 at PI3Kγ is 9.07; at PI3Kδ it was 9.42; at PI3Kα it was 6.43; at PI3K β it was 6.43. Besides, the “Inhibition of PI3Kδ (in words)” value at PI3Kδ is “inhibited both PI3Kγ and PI3Kδ”.

Take `CCCCC/C=C/C/C=C\CCCCCCCC(=O)OCCn1cc(-c2cccc3cc([C@@H](C)NC(=O)c4c(N)nn5cccnc45)n(-c4ccccc4)c(=O)c23)nn1` [DMA01-170, 2-(4-(3-((R)-1-(2-aminopyrazolo[1,5-a]pyrimidine-3-carboxamido)ethyl)-1-oxo-2-phenyl-1,2-dihydroisoquinolin-8-yl)-1H-1,2,3-triazol-1-yl)ethyl (9Z,12E)-octadeca-9,12-dienoate]: the “Macrophage polarization (TNFα secretion)” value in [5] is on record as “showed macrophage polarization effects compared to M2 control group”. Further, the “M1 macrophage percentage among all the macrophages” value in assay [2] is “mild effects on increasing M1 percentage”.

Turning to `C[C@@H](NC(=O)c1c(N)nn2cccnc12)c1cc2cccc(-c3cn(CCOC(=O)[C@H](N)Cc4cn(C)c5ccccc45)nn3)c2c(=O)n1-c1ccccc1` [DMA01-173, 2-(4-(3-((R)-1-(2-aminopyrazolo[1,5-a]pyrimidine-3-carboxamido)ethyl)-1-oxo-2-phenyl-1,2-dihydroisoquinolin-8-yl)-1H-1,2,3-triazol-1-yl)ethyl 1-methyl-D-tryptophanate], the “Macrophage polarization (TNFα secretion)” value in assay [5] is “showed macrophage polarization effects compared to M2 control group”. For the same molecule, the “BMDC activation (upregulation of CD80 and CD86)” value in [1] (10 μM, FIG. 4) is listed as “did not stimulate DC activation”. The “M1 macrophage percentage among all the macrophages” value in assay [2] was “mild effects on increasing M1 percentage”. Also, the mIFNβ secretion entry in [3] was “cannot enhance mIFNβ secretion”. Moreover, the “STING activation (interferon signal)” value in the assay with STING is reported as “did not stimulate STING activation”.
